Measured values taken from ChEMBL document CHEMBL3507680, “University of Dundee, Gates Library screen for HepG2 cell viability”.

experiment: Human HepG2 cell viability assay in 384 well format; format: toxicity, cell-based; parameters: dose 125 nL, time 70.5 hour; cytotoxicity at 70.5 h: concentration not given beside the values; conditions: HepG2 cells, read-out: Inhibition

| Compound | cytotoxicity at 70.5 h |
| --- | --- |
| Cc1nc(CNC(=O)Cn2nc(-c3ccc(F)cc3)oc2=O)cs1 | 0.339% |
| CCn1ccnc1CN1CCN(CCOc2cccc(C#N)c2)CC1 | -5.28% |
| Cc1cnn(CCC(=O)N2CCC(Nc3cccnn3)CC2)c1 | 18.3% |
| CCS(=O)(=O)N1CCc2cc(C(=O)NC)c(NCC3CC3)nc2CC1 | -4.13% |
| CC(C)Cc1cc(C(=O)N2CC(OCc3ccccc3F)C2)n(C)n1 | -2.8% |
| Cn1cc(CN2CC[C@@H](O)[C@@H]2Cc2ccccc2)cn1 | -7.36% |
| CCC[C@@H]1CN(C(=O)c2conc2-c2ccccc2)C[C@H]1N(C)C | 0.694% |
| COc1ccnc(N2CCN(C(=O)c3cscn3)CC2)n1 | -2.19% |
| Cc1noc(C)c1CN1CCn2cc(CNC(=O)C3CCC3)nc2C1 | -12.7% |
| Nc1ncncc1-c1noc([C@@H]2CCCN2Cc2cccnc2)n1 | -9.55% |
| O=C1NC2(CCNCC2)CC1c1ccncc1 (stereo not given) | 10.1% |
| CCN1CCN(c2ncc(-c3cc(C)no3)c(-c3ccco3)n2)CC1 | -3.95% |
| CN(C)C[C@@H]1C[C@@H]2CN(C(=O)Cc3cccs3)CC[C@@H]2N1C | 13.4% |
| Cc1nc(C2(O)CCCNCC2)sc1CCOc1ccc(F)c(F)c1 (stereo not given) | -4.26% |
| OC(COc1ccc(F)cc1)CN1CCC(Cn2cccn2)CC1 (stereo not given) | 10.3% |
| Cc1nc(N2CCN(C(=O)c3ccccc3)CC2)c2cnn(C)c2n1 | -0.834% |
| Cc1ncc(CNC(=O)NCC(C)Oc2ccccc2F)s1 (stereo not given) | -3.22% |
| COC(=O)N1CCCC(NC(=O)NCc2ccc(C)nc2)C1 (stereo not given) | -4.96% |
| Cc1ccc2cccc(C(=O)NCC3CCN(C(C)C)C3)c2n1 (stereo not given) | 12% |
| COc1cccc(CN2CCCCCC2c2cccc(C)c2)c1O (stereo not given) | 6.46% |
| CCC(O)CN1CCN(C(=O)c2cccn2Cc2cccs2)CC1 (stereo not given) | -17.9% |
| CC(C)n1cnnc1CNC(=O)CCCOc1ccccc1Cl | -6.43% |
| CCCC1(CO)CCCN(Cc2ncccn2)C1 (stereo not given) | -5.25% |

| Compound | cytotoxicity at 70.5 h |
| --- | --- |
| Cn1ccnc1C1(O)CCN(C(=O)CCc2ccccc2)CC1 | -5.37% |
| CC1N(C)C(=O)COC12CCN(C(=O)Cc1ccsc1)CC2 (stereo not given) | -5.66% |
| COCCCSc1ccc(NCc2scnc2C)cc1 | -0.225% |
| O=C(NCCC1=CCCCC1)C1CCN(c2ccc3nncn3n2)CC1 | 3.11% |
| CN(C)c1nc2c(c(NCc3cc(O)ncn3)n1)CCCC2 | -4.94% |
| Cc1cc(F)cc2c(N3CCC(S(N)(=O)=O)CC3)c(C#N)cnc12 | -4.86% |
| CN(C)CCN(Cc1ccccc1)C(=O)C1=NNC(=O)CC1 | -6.1% |
| Cn1cnnc1C1CCCN(C(=O)NCc2ccccc2)C1 (stereo not given) | 1.38% |
| CS(=O)(=O)c1ccc(CNC[C@H]2COCc3nc4cccnc4n32)cc1 | -1.94% |
| Cc1n[nH]cc1CNC(=O)CCCc1cccs1 | -3.35% |
| CN(CCC(F)(F)F)c1nc2ccccc2c(=O)[nH]1 | 0.426% |
| Cn1c(CS(=O)(=O)c2ccc(Cl)cc2)cc(=O)n(C)c1=O | -4.14% |
| Cc1nc(CN2CCCC(N(C)Cc3c(C)noc3C)C2)no1 (stereo not given) | 10.6% |
| CCNC(=O)CCC(=O)NC(Cc1ccccc1)c1sccc1C (stereo not given) | -7.03% |
| COc1ccc(CC(=O)N2CC[C@@]3(O)CCNC[C@H]3C2)c(OC)c1 | -7.58% |
| COc1ccccc1N1CCN(C(=O)CCn2nnnc2C)CC1(C)C | 19.3% |
| O=C(c1ncoc1C1CC1)N1CCCN(CCCc2ccccc2)CC1 | -10.2% |
| CCCN(CCO)S(=O)(=O)c1ccc2[nH]c(=O)[nH]c2c1 | 1.55% |
| CC(C)(C)c1nnc2n1C(C(=O)N1CCOCC1)CC2 (stereo not given) | -14.7% |
| Cc1noc(C)c1C(=O)N1CCCN(Cc2cscn2)CC1 | -2.11% |
| CN(CC(O)C(F)(F)F)C(=O)Nc1cccc(Cn2cccn2)c1 (stereo not given) | -6.9% |
| O=C(CN1C(=O)CCC1=O)N1CCOC2(CCOCC2)C1 | 29.6% |
| Cc1nc(CNC(=O)Nc2cc(C(F)(F)F)c[nH]c2=O)cs1 | 1.62% |

| Compound | cytotoxicity at 70.5 h |
| --- | --- |
| Cc1ccc(CN(C(=O)NCCNC(=O)c2cccnc2)C(C)C)o1 | 14.6% |
| c1nc2n(n1)CC(NCc1csc(-c3ccsc3)n1)CC2 (stereo not given) | -17.5% |
| O=C(O)CCCNC(=O)N1CCc2c([nH]c3ccc(Cl)cc23)C1 | -7.18% |
| COCCN1CCCC(O)(CN2CCN(c3ccncc3C)CC2)C1=O (stereo not given) | 5.87% |
| CN(Cc1ccc(-n2cccn2)cc1)CC1CCCN1c1cccnn1 (stereo not given) | -10.7% |
| Cc1c(-c2n[nH]c3c2CN(CC2CCOC2)CC3)cccc1C(F)(F)F (stereo not given) | -6.06% |
| CN(Cc1nccn1C)S(=O)(=O)N1CCCC1c1ccco1 (stereo not given) | -11.4% |
| Cn1cccc1C(=O)N[C@@H]1CN(S(C)(=O)=O)[C@@H]2COC[C@@H]21 | -8.37% |
| Cc1nn(C)c(Cl)c1C1CCCN1Cc1noc(C2CC2)n1 (stereo not given) | -9.55% |
| CCc1nc(C2CCCN2Cc2nnc(C3CC3)o2)no1 (stereo not given) | -3.82% |
| N#Cc1ccsc1N1CCC(Sc2ccncc2)C1=O (stereo not given) | -7.07% |
| O=S(=O)(NC[C@H]1C[C@@H]2CCN1C[C@@H]2CN1CCCCC1)c1ccccc1 | -6.11% |
| Cc1nc(C#N)c(N2CCC(c3nc(-c4ccc(F)cc4)no3)CC2)o1 | 28.5% |
| O=c1[nH]nc(SCC2CCCCO2)n1C1CC1 (stereo not given) | 28.8% |
| O=C(CCc1nc2ccccc2[nH]1)NC1CCOC2(CCOCC2)C1 (stereo not given) | 20.1% |
| Cc1nn(C)c(C)c1S(=O)(=O)N(C)Cc1nn(C)c(Cl)c1Cl | 18.2% |
| Cc1ccccc1OC1(C(=O)O)CCN(C(=O)CCc2ccco2)CC1 | -3.93% |
| c1ccc(CO[C@@H]2CN(Cc3cccnc3)[C@@H]3COC[C@@H]32)nc1 | 5.82% |
| CCc1nnc2n1CCN(c1nc(C)cc(N(C)C)n1)C2 | -13.4% |
| Cc1cc(C(N)=O)ccc1NC(=O)c1nc(N2CCCCC2)ncc1Cl | 3.51% |
| CO[C@H]1COCCN(C(=O)c2ccc(F)cc2)C1 | -3.92% |
| Cc1ccc(CNC(=O)CNCC2CCN(CCO)CC2)s1 | -1.79% |
| CC(Cn1cccn1)NCc1nc(-c2ccccn2)no1 (stereo not given) | -11.1% |

| Compound | cytotoxicity at 70.5 h |
| --- | --- |
| CC(C)[C@H]1CN(Cc2c[nH]cn2)C[C@@H]1NC(=O)CC1CCC1 | -6.54% |
| Cc1noc2nc(C3CCN(CC4CCCCC4)CC3)cc(C(F)F)c12 | 1.17% |
| COCCC1(CNC(=O)Nc2ccc(-n3nccn3)cc2)CCC1 | 13.3% |
| CCn1c(C2CCNCC2)nn(CCn2ccc(C)n2)c1=O | -21.2% |
| CCOc1ccc2nc(CN3CCOC(CN)C3)ccc2c1 (stereo not given) | -3.44% |
| Cc1nn(C)c(N(C)C)c1CNCc1ccc(N(C)C)nc1 | -2.4% |
| O=C(CCNC(=O)c1ccoc1)NCc1ccccc1F | -11% |
| O=C(Cn1ccc(=O)[nH]c1=O)Nc1ccccc1F | -4.99% |
| CC(CNC(=O)c1cc(C2CC2)on1)N1CCc2ccccc21 (stereo not given) | 2.16% |
| Cc1cnc(CN(C)C2CCN(Cc3nc4c(F)cccc4[nH]3)C2)o1 (stereo not given) | 1.64% |
| CC(C)c1cccc(-n2cc(O)c(C(=O)NCCCn3cccn3)n2)c1 | -5.65% |
| O=C(Nc1ccc(F)cc1)C1CCN(Cc2noc(C3CC3)n2)CC1 | -7.96% |
| COc1ccc(N2Cc3nc(=O)n(C(C)C)n3C2=O)cc1 | -15.6% |
| Cc1cc(C(=O)NCCN2CCCCC2)nn1C(C)(C)C | -18% |
| c1ccc(Cc2noc(CN3CCCCC3C3OCCO3)n2)cc1 (stereo not given) | -2.71% |
| Cc1ccc(CN2CC[C@@H]3OCCN(S(C)(=O)=O)[C@H]3CC2)s1 | -3.31% |
| Cc1cc(OC(F)F)c(C(=O)N2CCN(C3CC3)CC2)s1 | -8.34% |
| CC(=O)N1CCN(C(=O)NCc2ccccc2Cn2ccnc2)CC1 | -14.1% |
| O=C1CO[C@@H]2CN(C(=O)CCc3ccccc3)C[C@H]2N1 | -5.06% |
| COCCSc1ccc(C(C)NC(=O)Nc2cccnc2)cc1 (stereo not given) | -4.37% |
| CN1CCN(c2ccc(NS(=O)(=O)c3ccc(Cl)s3)cc2C(=O)O)CC1 | -2.11% |
| Cc1ccc(NCCCNC(=O)NCC2CCS(=O)(=O)C2)nc1 (stereo not given) | -17.4% |
| Cc1cc(NC(=O)c2ccc(F)cc2Br)n(C)n1 | -4.35% |

| Compound | cytotoxicity at 70.5 h |
| --- | --- |
| NCc1cnn(-c2ccccc2C(=O)NCCc2ccncc2)c1 | -7.18% |
| COCCN1CCCC12CCN(c1ncccn1)CC2 | -14.3% |
| CN(C)C(=O)N1CCC2(CCCN(c3ncccn3)C2)C1 (stereo not given) | 5.18% |
| O=C(CC1CCCO1)NS(=O)(=O)Cc1cc(-c2ccccc2)no1 (stereo not given) | 20.6% |
| Cc1ccc(-c2nc(CNC3CCc4ncnn4C3)no2)cc1 (stereo not given) | -1.3% |
| Cn1ccnc1CN1CCC2(CC1)COC2 | -7.76% |
| COCc1n[nH]/c(=N/C(=O)COc2cnc(C)cc2O)s1 | -9.66% |
| CCOC(C)C(=O)NCc1ccc(N(C)C)cc1 (stereo not given) | -10.8% |
| CC(C)(C)c1n[nH]cc1CNC1CCC(O)CC1 (stereo not given) | -19.6% |
| CCc1nnsc1C(=O)NC(CC(C)C)C(=O)OC (stereo not given) | -7.11% |
| O=C(c1[nH]nc2c1CCCC2)N1CCC(OCCN2CCCCC2)C1 (stereo not given) | -2.83% |
| Cn1ccc(CN2CCC(Cc3ccccc3)CC2)cc1=O | 0.151% |
| Cc1oc(-c2ccco2)nc1CN1CCCC(Cn2cncn2)C1 (stereo not given) | 39.6% |
| Cc1cccc(C(=O)N2CCCC(Cc3cncc4ccccc34)C2)n1 (stereo not given) | -0.949% |
| CO[C@@H]1CCN(c2nnc(C)s2)C[C@@H]1Cc1ccccc1 | -2.42% |
| COc1ccc(F)c(CN2CCC(c3cc(O)nc(C)n3)C2)c1 (stereo not given) | 32.2% |
| CC(C)Cc1noc(CNc2ccccc2CC(=O)N(C)C)n1 | -3.15% |
| Cc1cc(N2CCN(C(=O)[C@@H]3C[C@@H]4C=C[C@H]3C4)CC2)cc(C)n1 | -15.6% |
| N#Cc1cc(Br)ccc1NC1CCN(CC(N)=O)CC1 | -2.02% |
| CCn1cnnc1CNC(=O)c1cc(F)ccc1OC | -6.76% |
| CCN1CCn2c(C)cnc2C12CCN(C(=O)c1ccc(Cl)cc1)CC2 | -11.3% |
| CCc1ccsc1CNC(=O)CNC(=O)C(C)(C)C | -7.92% |
| Cc1ncnc2c1CCN(CC(=O)N(C)C)CC2 | -5.19% |
